Experimental findings from patent US20020028479A1, “Methods for the detection of fungal growth” (priority 2000, published 2002) are described below.

Assay [1] deals with A. nidulans 200092. As to the kind of experiment: Spore germination with indicator/electron donor added at T0, viewed microscopically. It is filed as cell-based. Particulars: added at the same time as spores (T0), no viability at 48 hours. How it is done: Spores from a frozen stock of A. nidulans 200092 at 1.63×10^7/ml) were diluted to 5×10^3/ml to yield 500 spores per well in yeast extract with glucose broth supplemented with lysine and uridine.
Tetrazolium salts (listed in Table 1) were each dissolved to 1 mg/ml in phosphate-buffered saline (PBS) or water, aliquotted, and frozen. Electron coupling agents phenazine methosulfate (PMS; lot 194-03) and menadione (MEN; lot 170-95) were prepared at 5 mM in PBS and 10 mM in acetone, respectively. Cultures had no electron coupling reagent added, PMS (120 μl of PMS per 12 ml of tetrazolium salt) or MEN (42 μl per 12 ml of tetrazolium salt). Each well received 25 μl of indicator.
Indicator (with or without electron coupling reagent) was added at the same time as spores (T0), following ˜24 hours of incubation (T24), or following ˜48 hours of incubation (T48). Wells were viewed ˜2 hours post addition. NC denotes no color seen.
Microscopically, when compared to wells that had no indicator added or had PMS added, it was evident that the spores were present but had not germinated. At 48 hours, these same wells still had not shown any signs of viability.

The test system of assay [2] is Aspergillus nidulans 200092. As to the kind of experiment: MTS/MEN growth inhibition assay, OD490.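 Also: fungal spore suspensions in 96-well plates with MTS/MEN indicator, absorbance read after 2 h and again after further development up to 24 h, controls containing medium only.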
Protocol: Spores from a frozen stock of Aspergillus nidulans 200092 (at 1.63×10^7/ml) were diluted to 5×10^3/ml to yield 500 spores per well in yeast extract with glucose broth supplemented with lysine and uridine.
MEN was added at a ratio of 42 μl MEN per 12 ml of MTS. Each well received 25 μl indicator.
98 μl of the spore suspension was added to the wells of a 96 well plate. Control wells received media only. […] Plates were then incubated for 2 hours and then read at OD490. MTS/MEN was then allowed to develop for an additional period of time up to 24 hours and the plates was re-read.
[3] abbreviates: Aspergillus nidulans, 200092, 2 h.
[4] abbreviates: Aspergillus nidulans, 200092, 24 h.

In the case of `COc1cc(-c2ccc(-n3nc(-c4ccccc4)n[n+]3-c3ccccc3)c(OC)c2)ccc1-n1nc(-c2ccccc2)n[n+]1-c1ccccc1` [BT, Tetrazolium Blue Chloride], the “germination or growth of the spores” value in assay [1] is on record as “inhibit germination or growth of the spores”.

For `Clc1ccccc1C(c1ccccc1)(c1ccccc1)n1ccnc1` [Clotrimazole, clotrimazole], in assay [2] (setting [3]), the inhibition (in general, the change of the read-out against control, counted positive when it falls) at 0.0039 µg/mL came out at 15.8%; the inhibition at 0.0078 µg/mL was 35.4%; the inhibition at 0.0156 µg/mL was found to be 26%; the inhibition at 0.0313 µg/mL is 56.8%. In addition, in assay [2] (setting [3]), the inhibition at 0.0625 µg/mL was determined as 86.5%, the inhibition at 0.125 µg/mL came out at 94.6%, the inhibition at 0.25 µg/mL was found to be 93% and the inhibition at 0.5 µg/mL is 93%. In assay [2] (setting [3]), the inhibition at 1 µg/mL was 94.5%, the inhibition at 2 µg/mL was determined as 93.4%, the inhibition at 4 µg/mL stood at 95.8% and the inhibition at 8 µg/mL was 94.4%. In assay [2] (setting [3]), the inhibition at 16 µg/mL was determined as 94.4%, the inhibition at 32 µg/mL is 91.5% and the inhibition at 64 µg/mL is 86%. In assay [2] (setting [4]), the inhibition at 0.0039 µg/mL was 6.6%, the inhibition at 0.0078 µg/mL came out at 48.5%, the inhibition at 0.0156 µg/mL was 47.2% and the inhibition at 0.0313 µg/mL stood at 70.1%. Moreover, in assay [2] (setting [4]), the inhibition at 0.0625 µg/mL amounted to 77%, the inhibition at 0.125 µg/mL is 93.6%, the inhibition at 0.25 µg/mL was 91.6% and the inhibition at 0.5 µg/mL is 92%. Also, in assay [2] (setting [4]), the inhibition at 1 µg/mL was determined as 93.9%, the inhibition at 2 µg/mL is 92.3%, the inhibition at 4 µg/mL is 96.2% and the inhibition at 8 µg/mL stood at 94.2%. For the same molecule, in assay [2] (setting [4]), the inhibition at 16 µg/mL came out at 93.4%, the inhibition at 32 µg/mL turned out to be 92.1% and the inhibition at 64 µg/mL is 91.9%.

On to `O=[N+]([O-])c1ccc(-[n+]2nc(-c3ccccc3)nn2-c2ccc(I)cc2)cc1.[Cl-]` [INT, p-Iodonitrotetrazolium Violet], for which the “germination or growth of the spores” value in assay [1] is “inhibit germination or growth of the spores”.

`CC1=CC(=O)c2ccccc2C1=O` [MEN, menadione]: in assay [1], the “germination or growth of the spores” value was “inhibit germination or growth of the spores”.

Take `C[n+]1cc2c3c(ccc2c2ccc4cc5c(cc4c21)OCO5)OCO3` [Sanguinarine, sanguinarine]: in assay [2] (setting [3]), the IC50 (commonly the concentration that inhibits the measured activity by half) was found to be 1.42 µg/mL, the inhibition at 0.0061 µg/mL came out at 16.2%, the inhibition at 0.0122 µg/mL is -3.1% and the inhibition at 0.0244 µg/mL came out at 15.6%. In addition, in assay [2] (setting [3]), the inhibition at 0.0488 µg/mL turned out to be 15.7%, the inhibition at 0.0977 µg/mL came to 42.9%, the inhibition at 0.1953 µg/mL amounted to 10.2% and the inhibition at 0.3906 µg/mL was determined as 33.8%. Also, in assay [2] (setting [3]), the inhibition at 0.7813 µg/mL worked out at 45%, the inhibition at 1.5625 µg/mL stood at 49.6%, the inhibition at 3.125 µg/mL worked out at 50.8% and the inhibition at 6.25 µg/mL turned out to be 86.9%. Moreover, in assay [2] (setting [3]), the inhibition at 12.5 µg/mL amounted to 89.4%, the inhibition at 25 µg/mL was found to be 88.4%, the inhibition at 50 µg/mL was found to be 77.3% and the inhibition at 100 µg/mL came out at 53.3%. Besides, the inhibition at 200 µg/mL in assay [2] (setting [3]) was found to be 7%. Further, in assay [2] (setting [4]), the IC50 was 2.77 µg/mL, the inhibition at 0.0061 µg/mL stood at 10.9%, the inhibition at 0.0122 µg/mL was -1.7% and the inhibition at 0.0244 µg/mL stood at 5.1%. Further, in assay [2] (setting [4]), the inhibition at 0.0488 µg/mL came out at 7.9%, the inhibition at 0.0977 µg/mL is 18.4%, the inhibition at 0.1953 µg/mL is -2.4% and the inhibition at 0.3906 µg/mL was determined as 12.6%. Further, in assay [2] (setting [4]), the inhibition at 0.7813 µg/mL is 19.7%, the inhibition at 1.5625 µg/mL is 39.8%, the inhibition at 3.125 µg/mL was 42.2% and the inhibition at 6.25 µg/mL stood at 86.7%. In assay [2] (setting [4]), the inhibition at 12.5 µg/mL was 93.7%, the inhibition at 25 µg/mL was 92.4%, the inhibition at 50 µg/mL was 91.7% and the inhibition at 100 µg/mL came out at 87.5%. The inhibition at 200 µg/mL in assay [2] (setting [4]) was 79.5%.

Turning to `COc1cc(-c2ccc(-[n+]3nc(-c4ccc([N+](=O)[O-])cc4)nn3-c3ccc([N+](=O)[O-])cc3)c(OC)c2)ccc1-[n+]1nc(-c2ccc([N+](=O)[O-])cc2)nn1-c1ccc([N+](=O)[O-])cc1.[Cl-].[Cl-]` [TNTB, Tetranitro Blue Tetrazolium], the “germination or growth of the spores” value in assay [1] is on record as “inhibit germination or growth of the spores”.

In the case of `c1ccc(-c2nn(-c3ccccc3)[n+](-c3cccc4ccccc34)n2)cc1` [TV, Tetrazolium Violet], in assay [1], the “germination or growth of the spores” value is on record as “inhibit germination or growth of the spores”.
